# Test: 24 h therapeutic monitoring and noncompartmental pharmacokinetics in chronic lymphocytic leukemia patients receiving IBR
# Settings: plasma; for mean DIB/IBR concentration ratio: three patients; for concentration at 0.5 h: 0.5 h postdose; for concentration at 1 h: 1 h postdose; for concentration at 2 h: 2 h postdose; for concentration at 4 h: 4 h postdose; for concentration at 23 h: 23 h postdose
# [1] = Patient 1, 420 mg IBR per day, steady state
# [2] = Patient 2, 420 mg IBR per day, steady state
# [3] = Patient 3, 280 mg IBR per day, steady state
# [4] = human, oral, 280 mg/day, Conc., subj=3 (280 mg IBR per day)
# [5] = human, oral, 420 mg, Conc., subj=1 (420 mg IBR per day)
# [6] = human, oral, 420 mg, Conc., subj=2 (420 mg IBR per day)
# Experimental: In order to provide a proof of concept, IBR and DIB were assayed in the plasma samples of three patients treated with IBR. […] The criteria for inclusion were (1) age of ≥18 years, (2) treatment ongoing with IBR for more than 10 days, and (3) no concurrent administration of medications undergoing CYP3A4 metabolism. The subjects gave their written informed consent. Each participant took either two or three 140 mg Imbruvica capsules, as per the therapeutic provision, in the presence of the recruiting clinician.
# Blood samples were centrifuged at 3000 rpm for 10 min in a Hettich Universal 320R centrifuge (Auro-Science, Budapest, Hungary) at 10 °C. Plasma was separated and frozen at −70 °C until analysis was done within 2 weeks.
compound,measurement,setting,value
"Nc1ncnc2c1c(-c1ccc(Oc3ccccc3)cc1)nn2[C@@H]1CCCN(C(=O)C(O)CO)C1 (stereo partly drawn) [Dihydrodiol Ibrutinib, 1-[(3R)-3-[4-amino-3-(4-phenoxyphenyl)pyrazolo[3,4-d]pyrimidin-1-yl]piperidin-1-yl]-2,3-dihydroxypropan-1-one]",AUC0–24,[1],2347 nmol·L/h
same,AUMC0–24,[1],"16,593 nmol × L"
same,AUC0–24,[2],2528 nmol·L/h
same,AUMC0–24,[2],"11,626 nmol × L"
same,AUC0–24,[3],1800 nmol·L/h
same,AUMC0–24,[3],8172 nmol·L
same,mean DIB/IBR concentration ratio,at 4 h postdose,2.36 ± 1.69
same,mean DIB/IBR concentration ratio,at the trough (23–24 h),3.34–3.44
same,mean DIB/IBR concentration ratio,between 0.5–2 h postdose,0.96–1.19
same,AUC,"human, oral, 280 mg, AUCALL AUC All, subj=3 (280 mg IBR per day), steady state",1.8 µM·h
same,AUC(0-inf),"human, oral, 280 mg, AUCIFO AUC Infinity Obs, subj=3 (280 mg IBR per day), steady state",1.88 µM·h
same,AUC(0-inf),"human, oral, 280 mg, AUCIFP AUC Infinity Pred, subj=3 (280 mg IBR per day), steady state",1.88 µM·h
same,AUC,"human, oral, 280 mg, AUCLST AUC to Last Nonzero Conc, subj=3 (280 mg IBR per day), steady state",1.8 µM·h
same,Cmax,"human, oral, 280 mg, CMAX Max Conc, subj=3 (280 mg IBR per day), steady state",217 nM
same,k el,"human, oral, 280 mg, LAMZ Lambda z, subj=3 (280 mg IBR per day), steady state",3.39e-05 s⁻¹
same,half-life,"human, oral, 280 mg, LAMZHL Half-Life Lambda z, subj=3 (280 mg IBR per day), steady state",5.68 h
same,MRT last,"human, oral, 280 mg, MRT0–24, Patient 3, 280 mg IBR per day, steady state",4.54 h
same,MRT,"human, oral, 280 mg, MRTEVIFO MRT Extravasc Infinity Obs, subj=3 (280 mg IBR per day), steady state",5.75 h
same,MRT,"human, oral, 280 mg, MRTEVIFP MRT Extravasc Infinity Pred, subj=3 (280 mg IBR per day), steady state",5.72 h
same,MRT,"human, oral, 280 mg, MRTEVLST MRT Extravasc to Last Nonzero Conc, subj=3 (280 mg IBR per day), steady state",4.54 h
same,Cmax,"human, oral, 280 mg, cmax, Patient 3, 280 mg IBR per day, steady state",217 nM
same,k el,"human, oral, 280 mg, ke, Patient 3, 280 mg IBR per day, steady state",3.39e-05 s⁻¹
same,half-life,"human, oral, 280 mg, t1/2, Patient 3, 280 mg IBR per day, steady state",5.68 h
same,Tmax,"human, oral, 280 mg, tmax, Patient 3, 280 mg IBR per day, steady state",2 h
same,concentration at 24 h,"human, oral, 280 mg/day, CLST Last Nonzero Conc, subj=3 (280 mg IBR per day), 24 h",10.1 nM
same,concentration at 24 h,"human, oral, 280 mg/day, CLSTP Last Nonzero Conc Pred, subj=3 (280 mg IBR per day), 24 h",9.84 nM
same,concentration at 0.5 h,[4],50.4 nM
same,concentration at 1 h,[4],195 nM
same,concentration at 2 h,[4],217 nM
same,concentration at 4 h,[4],113 nM
same,concentration at 23 h,[4],10.8 nM
same,concentration at 24 h,"human, oral, 280 mg/day, Conc., subj=3 (280 mg IBR per day), 24 h postdose",10.1 nM
same,AUC,"human, oral, 420 mg, AUCALL AUC All, subj=1 (420 mg IBR per day), steady state",2.35 µM·h
same,AUC,"human, oral, 420 mg, AUCALL AUC All, subj=2 (420 mg IBR per day), steady state",2.53 µM·h
same,AUC(0-inf),"human, oral, 420 mg, AUCIFO AUC Infinity Obs, subj=1 (420 mg IBR per day), steady state",2.85 µM·h
same,AUC(0-inf),"human, oral, 420 mg, AUCIFO AUC Infinity Obs, subj=2 (420 mg IBR per day), steady state",2.63 µM·h
same,AUC(0-inf),"human, oral, 420 mg, AUCIFP AUC Infinity Pred, subj=1 (420 mg IBR per day), steady state",2.88 µM·h
same,AUC(0-inf),"human, oral, 420 mg, AUCIFP AUC Infinity Pred, subj=2 (420 mg IBR per day), steady state",2.63 µM·h
same,AUC,"human, oral, 420 mg, AUCLST AUC to Last Nonzero Conc, subj=1 (420 mg IBR per day), steady state",2.35 µM·h
same,AUC,"human, oral, 420 mg, AUCLST AUC to Last Nonzero Conc, subj=2 (420 mg IBR per day), steady state",2.53 µM·h
same,concentration at 24 h,"human, oral, 420 mg, CLST Last Nonzero Conc, subj=1 (420 mg IBR per day), 24 h",34.6 nM
same,concentration at 24 h,"human, oral, 420 mg, CLST Last Nonzero Conc, subj=2 (420 mg IBR per day), 24 h",13.2 nM
same,concentration at 24 h,"human, oral, 420 mg, CLSTP Last Nonzero Conc Pred, subj=1 (420 mg IBR per day), 24 h",36.5 nM
same,concentration at 24 h,"human, oral, 420 mg, CLSTP Last Nonzero Conc Pred, subj=2 (420 mg IBR per day), 24 h",13 nM
same,Cmax,"human, oral, 420 mg, CMAX Max Conc, subj=1 (420 mg IBR per day), steady state",185 nM
same,Cmax,"human, oral, 420 mg, CMAX Max Conc, subj=2 (420 mg IBR per day), steady state",254 nM
same,concentration at 0.5 h,[5],53.4 nM
same,concentration at 1 h,[5],139 nM
same,concentration at 2 h,[5],185 nM
same,concentration at 4 h,[5],143 nM
same,concentration at 23 h,[5],41.3 nM
same,concentration at 24 h,"human, oral, 420 mg, Conc., subj=1 (420 mg IBR per day), 24 h postdose",34.6 nM
same,concentration at 0.5 h,[6],71.5 nM
same,concentration at 1 h,[6],254 nM

# Source: publication PMC9331678 (Molecules, 2022)
